Reference: patent publication US11752154B2, “Pharmaceutical compositions comprising sepiapterin and uses thereof” (PTC Therapeutics MP, Inc., priority 2017, dated 2023)
Blank lines part the entries; values can stand above or below the compound they belong to.

Tests used:
[1] = Determination of BH4 and sepiapterin levels in plasma, liver, kidney and urine after sepiapterin or BH4 (Example 4); assay type: in vivo; conditions: for kidney, liver and urine exposure to BH4 versus dose level: 20, 60 or 180 mg/kg
Procedure: Animals were administered the test items, sepiapterin or BH4, at dose levels of 20, 60 or 180 mg/kg. Blood, liver, kidney and urine samples (where possible) were collected from 3 animals/timepoints/group on the day of dosing at 0 (pre-dose, controls only), 0.5, 1, 2, 4, and 8 hours post-dose. Samples were assayed for sepiapterin or BH4 (not quantified in plasma) and non-compartmental pharmacokinetic analysis was performed.

[2] = Stability analysis of salts and/or co-crystals of sepiapterin (Example 7); assay type: physicochemical; conditions: 25° C./60% RH and 40° C./75% RH, two weeks
Procedure: The stability of the prepared salts and/or co-crystals was analyzed after […] at 25° C. and 60% relative humidity and 40° C. and 75% relative humidity. […] None of the phosphate, tartrate, or nicotinate salts and/or co-crystals underwent a form change during the stability testing, and each of them retained greater than 97% purity over the two weeks of the study. In fact, both the tartrate and nicotinate both retained greater than 99% purity.

[3] = Kinetic solubility and disproportionation of sepiapterin salts and/or co-crystals in water and Medisca Oral Mix (Example 8); assay type: physicochemical; conditions: for solubility at 1 hr / solubility at 4 hr / solubility at 24 hr: thermodynamic from solid; for solubility at 1 hr / solubility at 4 hr / solubility at 24 hr / Form change / Solubility / Purity (area %): RT; for solubility at 1 hr / solubility at 4 hr / solubility at 24 hr / Solubility: calculated using freebase, target conc. ~7 mg/mL; for Form change: residual solids by XRPD; for form of residual solids: water and Medisca Oral Mix, after 1 hour; for Purity (area %): supernatant, for reference only
Procedure: The kinetic solubility was evaluated for nicotinate, phosphate, L-tartrate, and fumarate salts and/or co-crystals of sepiapterin in water and Medisca Oral Mix. X-ray powder diffraction (XRPD) was performed for the residual solids to identify form change/disproportionation. Solids were suspended into the media with target conc. of ˜7 mg/mL (calculated by freebase). The suspensions were agitated on a rolling incubator at 25 rpm for 1, 4 and 24 hrs. At each time point, 1 mL of the suspension was pipetted out for centrifugation at 10000 rpm (2 min) and filtration through 0.45 μm membrane to obtain supernatant for HPLC solubility and pH tests, the residual solids were analyzed by XRPD.

[4] = Medisca Oral Mix, 1 hr, listed as L-tartrate salt and/or co-crystal
[5] = Water, 1 hr, listed as L-tartrate salt and/or co-crystal
[6] = Water, 4 hr, listed as L-tartrate salt and/or co-crystal
[7] = Water, 24 hr, listed as L-tartrate salt and/or co-crystal
[8] = Medisca Oral Mix, 24 hr, listed as phosphate salt and/or co-crystal
[9] = Water, 1 hr, listed as phosphate salt and/or co-crystal
[10] = Water, 4 hr, listed as phosphate salt and/or co-crystal
[11] = Water, 24 hr, listed as phosphate salt and/or co-crystal

SMILES: C[C@H](O)[C@H](O)[C@H]1CNc2nc(N)[nH]c(=O)c2N1 [BH4, tetrahydrobiopterin, reference compound]
kidney, liver and urine exposure to BH4 versus dose level [1]: decreased as the dose level increased

SMILES: C[C@H](O)C(=O)C1=Nc2c(nc(N)[nH]c2=O)NC1 [sepiapterin]
kidney, liver and urine exposure to BH4 versus dose level [1]: decreased as the dose level increased
kidney BH4 Cmax following sepiapterin administration versus BH4 alone ([1]; except at the high-dose): similar
secondary peak of absorption (plasma sepiapterin) ([1]; low- and mid-dose levels, post-dose): 8 h
sepiapterin exposure amongst the analyzed matrices ([1]; plasma, liver, kidney, urine): highest in urine
dose proportionality of circulating sepiapterin exposure ([1]; plasma, entire dose range): much greater than dose proportional
time of maximum sepiapterin plasma concentrations ([1]; post-dose, sepiapterin 20, 60 or 180 mg/kg): 30 minutes or 2 hours
sepiapterin detected in the liver and kidney ([1]; sepiapterin 20, 60 or 180 mg/kg): only at 30 minutes post-dose and only in the liver for the mid- or high-dose
dose proportionality of sepiapterin exposure ([1]; urine, liver and kidney, entire dose range): less than dose proportional

Other lines, results leading:

form change during the stability testing [2]: None
solubility at 1 hr ([3]; Medisca Oral Mix, aqueous with cosolvent or surfactant or cyclodextrin, 1 hr): 2600 µg/mL
solubility at 4 hr ([3]; Medisca Oral Mix, aqueous with cosolvent or surfactant or cyclodextrin, 4 hr): 3100 µg/mL
solubility at 24 hr ([3]; Medisca Oral Mix, aqueous with cosolvent or surfactant or cyclodextrin, 24 hr): 3500 µg/mL
Form change ([3]; Medisca Oral Mix, 1 hr, ** = low crystallinity, listed as nicotinate salt and/or co-crystal): Yes
Form change ([3]; Medisca Oral Mix, 4 hr, ** = low crystallinity, listed as nicotinate salt and/or co-crystal): Yes
Form change ([3]; Medisca Oral Mix, 24 hr, ** = low crystallinity, listed as nicotinate salt and/or co-crystal): Yes
Form change ([3]; Water, 1 hr, listed as nicotinate salt and/or co-crystal): Yes
Form change ([3]; Water, 4 hr, listed as nicotinate salt and/or co-crystal): Yes
Form change ([3]; Water, 24 hr, listed as nicotinate salt and/or co-crystal): Yes
form of residual solids [3]: converted to freebase
solubility at 1 hr ([3]; water, 1 hr): 1500 µg/mL
solubility at 4 hr ([3]; water, 4 hr): 2300 µg/mL
solubility at 24 hr ([3]; water, 24 hr): 1800 µg/mL
SMILES: C[C@H](O)C(=O)C1=Nc2c(nc(N)[nH]c2=O)NC1 [Nicotinate]

form change during the stability testing [2]: None
Solubility [3, 4]: 2000 µg/mL
Solubility [3, 5]: 1600 µg/mL
Solubility [3, 6]: 1800 µg/mL
Solubility [3, 7]: 1800 µg/mL
Form change ([3]; Medisca Oral Mix, 1 hr, ** = low crystallinity, listed as L-tartrate salt and/or co-crystal): Yes
Form change ([3]; Medisca Oral Mix, 4 hr, ** = low crystallinity, listed as L-tartrate salt and/or co-crystal): Yes
Form change ([3]; Medisca Oral Mix, 24 hr, ** = low crystallinity, listed as L-tartrate salt and/or co-crystal): Yes
Form change [3, 5]: Yes
Form change [3, 6]: Yes
Form change [3, 7]: Yes
Purity (area %) [3, 4]: 99.68 area %
Purity (area %) ([3]; Medisca Oral Mix, 4 hr, listed as L-tartrate salt and/or co-crystal): 99.54 area %
Purity (area %) ([3]; Medisca Oral Mix, 24 hr, listed as L-tartrate salt and/or co-crystal): 95.67 area %
Purity (area %) [3, 5]: 99.34 area %
Purity (area %) [3, 6]: 99.07 area %
Purity (area %) [3, 7]: 95.61 area %
form of residual solids [3]: converted to freebase
SMILES: C[C@H](O)C(=O)C1=Nc2c(nc(N)[nH]c2=O)NC1 [L-Tartrate]

form change during the stability testing [2]: None
Solubility [3, 8]: 2100 µg/mL
Solubility [3, 9]: 1700 µg/mL
Solubility [3, 10]: 2000 µg/mL
Solubility [3, 11]: 1900 µg/mL
Form change ([3]; Medisca Oral Mix, 1 hr, ** = low crystallinity, listed as phosphate salt and/or co-crystal): Yes**
Form change ([3]; Medisca Oral Mix, 4 hr, ** = low crystallinity, listed as phosphate salt and/or co-crystal): Yes**
Form change ([3]; Medisca Oral Mix, 24 hr, ** = low crystallinity, listed as phosphate salt and/or co-crystal): Yes**
Form change [3, 9]: Yes
Form change [3, 10]: Yes
Form change [3, 11]: Yes
Purity (area %) ([3]; Medisca Oral Mix, 1 hr, listed as phosphate salt and/or co-crystal): 99.23 area %
Purity (area %) ([3]; Medisca Oral Mix, 4 hr, listed as phosphate salt and/or co-crystal): 98.95 area %
Purity (area %) [3, 8]: 87.63 area %
Purity (area %) [3, 9]: 89.92 area %
Purity (area %) [3, 10]: 89.52 area %
Purity (area %) [3, 11]: 82.64 area %
form of residual solids [3]: converted to freebase
SMILES: C[C@H](O)C(=O)C1=Nc2c(nc(N)[nH]c2=O)NC1 [Phosphate]
